{"source": "paper PMC5209447", "about": "“Aryl-1,3,5-triazine ligands of histamine H4 receptor attenuate inflammatory and nociceptive response to carrageen, zymosan and lipopolysaccharide” (Inflammation Research, 2016)", "biological_target": "T1, phosphodiesterase 4B1 (PDE 4B1) (Homo sapiens, UniProt Q07343)", "T1 construct": "gene PDE4B; PDE 4B1 (BPS Biosciences)", "T1 sequence (Q07343 whole entry)": "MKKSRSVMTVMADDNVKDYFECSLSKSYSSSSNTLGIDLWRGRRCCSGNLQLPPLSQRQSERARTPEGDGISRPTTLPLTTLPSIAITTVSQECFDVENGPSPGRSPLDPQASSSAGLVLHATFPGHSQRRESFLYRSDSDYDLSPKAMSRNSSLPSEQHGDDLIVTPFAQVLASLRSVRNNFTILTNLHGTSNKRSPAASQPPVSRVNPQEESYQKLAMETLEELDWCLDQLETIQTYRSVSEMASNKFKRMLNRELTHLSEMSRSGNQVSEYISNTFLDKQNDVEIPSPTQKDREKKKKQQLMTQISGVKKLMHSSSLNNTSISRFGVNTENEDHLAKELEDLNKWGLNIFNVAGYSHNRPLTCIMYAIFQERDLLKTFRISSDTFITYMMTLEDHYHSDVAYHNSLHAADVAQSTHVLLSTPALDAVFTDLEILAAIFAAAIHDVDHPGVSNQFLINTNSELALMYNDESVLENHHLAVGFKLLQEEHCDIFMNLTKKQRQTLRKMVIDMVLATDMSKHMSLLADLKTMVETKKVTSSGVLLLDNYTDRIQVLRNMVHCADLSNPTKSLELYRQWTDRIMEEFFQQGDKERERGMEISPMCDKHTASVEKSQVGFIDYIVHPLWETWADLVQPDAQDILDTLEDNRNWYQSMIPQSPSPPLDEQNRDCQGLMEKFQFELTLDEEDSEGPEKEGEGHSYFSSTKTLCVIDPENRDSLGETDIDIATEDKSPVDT", "assay": "PDELight bioluminescent cAMP phosphodiesterase assay, % inhibition at […]", "type": "biochemical", "details": "read-out: PDE 4B1 inhibition (%) ± SEM", "data": [{"smiles": "Nc1nc(N)nc(-c2cc(Cl)ccc2Cl)n1", "note": "[Irsogladine]", "values": [{"measurement": "inhibition at 100 µM", "result": "31 ± 0.5", "unit": "%"}]}, {"smiles": "COc1ccc(C2CNC(=O)C2)cc1OC1CCCC1", "note": "(centres unmarked) [Rolipram]", "values": [{"measurement": "inhibition at 50 µM", "result": 95, "unit": "%"}]}]}
